Measured values taken from patent publication US20210070748A1, “INHIBITORS OF BRUTONS TYROSINE KINASE” (Pharmacyclics LLC, priority 2015, published 2021).

How the values were obtained:
[1] = biological target: T1, BTK-WT (Homo sapiens, UniProt Q06187); assay: Btk in vitro inhibitory activity (one of Method A TR-FRET, Method B electrophoretic mobility shift, Method C radiometric filter binding); type: biochemical; conditions: D-compounds panel data; read-out: IC50 BTK-WT
T1 construct: purified from insect cells as a full-length construct containing an N-terminal 6X-His tag; His6 (N); made in house; host or cells: insect cells (baculovirus Sf21 in Method B)
T1 sequence (Q06187 whole entry): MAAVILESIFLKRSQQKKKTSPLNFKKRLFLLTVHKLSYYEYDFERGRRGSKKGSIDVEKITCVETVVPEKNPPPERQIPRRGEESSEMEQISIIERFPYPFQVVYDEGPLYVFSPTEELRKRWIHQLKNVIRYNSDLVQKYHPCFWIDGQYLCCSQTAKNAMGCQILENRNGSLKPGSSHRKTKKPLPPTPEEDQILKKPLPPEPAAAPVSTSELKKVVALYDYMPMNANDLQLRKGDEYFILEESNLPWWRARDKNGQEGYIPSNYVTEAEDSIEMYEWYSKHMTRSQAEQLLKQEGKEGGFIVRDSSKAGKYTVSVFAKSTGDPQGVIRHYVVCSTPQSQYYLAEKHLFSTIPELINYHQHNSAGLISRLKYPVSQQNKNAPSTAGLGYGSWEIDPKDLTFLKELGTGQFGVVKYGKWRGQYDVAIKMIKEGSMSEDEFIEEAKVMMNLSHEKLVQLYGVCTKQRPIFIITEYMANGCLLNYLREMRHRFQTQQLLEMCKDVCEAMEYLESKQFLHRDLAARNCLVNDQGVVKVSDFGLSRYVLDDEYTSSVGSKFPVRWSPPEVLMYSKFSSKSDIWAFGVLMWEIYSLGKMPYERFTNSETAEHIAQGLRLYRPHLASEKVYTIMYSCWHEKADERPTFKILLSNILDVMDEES

[2] = biological target: SRC (Homo sapiens, UniProt P12931); assay: Inhibition of a panel of kinases, in vitro HotSpot kinase assay: SRC; type: biochemical; conditions: D-compounds panel data; 1 μM ATP
SRC, sequence (P12931 whole entry): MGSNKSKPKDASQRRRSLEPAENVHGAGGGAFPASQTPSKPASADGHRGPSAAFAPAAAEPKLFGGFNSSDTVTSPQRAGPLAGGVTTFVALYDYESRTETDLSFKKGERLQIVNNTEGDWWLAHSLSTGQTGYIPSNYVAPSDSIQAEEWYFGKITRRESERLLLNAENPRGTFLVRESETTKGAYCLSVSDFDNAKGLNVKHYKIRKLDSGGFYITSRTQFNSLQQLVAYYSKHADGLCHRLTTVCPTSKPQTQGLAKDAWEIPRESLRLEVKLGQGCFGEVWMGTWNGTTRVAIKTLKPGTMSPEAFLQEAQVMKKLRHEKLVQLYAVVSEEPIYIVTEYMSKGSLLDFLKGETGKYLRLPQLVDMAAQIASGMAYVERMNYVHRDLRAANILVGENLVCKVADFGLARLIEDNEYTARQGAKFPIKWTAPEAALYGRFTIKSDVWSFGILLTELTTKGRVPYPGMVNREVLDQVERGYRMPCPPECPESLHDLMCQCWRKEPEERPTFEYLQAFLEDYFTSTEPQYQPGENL
Description: The degree of inhibition of a panel of kinases is determined using the in vitro HotSpot kinase assay (purified enzymes, ^33P-ATP, an appropriate substrate and 1 μM ATP).

SMILES: Cn1cc(Nc2nc(N3CCC[C@@H](n4ccc5cc(C6CC6)ccc5c4=O)C3)nnc2C(N)=O)cn1 [Example D-206, 3-[(3R)-3-(6-cyclopropyl-1-oxo-1,2-dihydroisoquinolin-2-yl)piperidin-1-yl]-5-[(1-methyl-1H-pyrazol-4-yl)amino]-1,2,4-triazine-6-carboxamide]
- IC50 [1]: ≤ 10 nM
- IC50 [2]: 10 to 100 nM

SMILES: C[C@@H]1[C@H](NC(=O)N(C)C)CCCN1c1cnc(C(N)=O)c(Nc2ccc(N3CCN(C)CC3)cn2)n1 [Example D-180, 5-[(2R,3R)-3-[(dimethylcarbamoyl)amino]-2-methylpiperidin-1-yl]-3-{[5-(4-methylpiperazin-1-yl)pyridin-2-yl]amino}pyrazine-2-carboxamide]
- IC50 [1]: 100 to 1000 nM
- IC50 [2]: > 10000 nM

SMILES: C[C@@H]1[C@H](NC(=O)c2ccc(C(C)(C)C)cc2F)CCCN1c1cnc(C(N)=O)c(Nc2cnn(C)c2)n1 [Example D-223, 5-[(2R,3R)-3-(4-tert-butyl-2-fluorobenzamido)-2-methylpiperidin-1-yl]-3-[(1-methyl-1H-pyrazol-4-yl)amino]pyrazine-2-carboxamide]
- IC50 [1]: ≤ 10 nM
- IC50 [2]: 100 to 1000 nM

SMILES: Cc1ccc(C(=O)N[C@@H]2CCCN(c3cnc(C(N)=O)c(Nc4cnn(C)c4)n3)[C@@H]2C)cc1 [Example D-232, 3-[(1-methyl-1H-pyrazol-4-yl)amino]-5-[(2R,3R)-2-methyl-3-(4-methylbenzamido)piperidin-1-yl]pyrazine-2-carboxamide]
- IC50 [1]: ≤ 10 nM
- IC50 [2]: 10 to 100 nM

SMILES: C[C@@H]1[C@H](NC(=O)c2ccc(C(C)(C)C)cn2)CCCN1c1cnc(C(N)=O)c(Nc2cnn(C)c2)n1 [Example D-208, 5-[(2R,3R)-3-(5-tert-butylpyridine-2-amido)-2-methylpiperidin-1-yl]-3-[(1-methyl-1H-pyrazol-4-yl)amino]pyrazine-2-carboxamide]
- IC50 [1]: ≤ 10 nM
- IC50 [2]: 10 to 100 nM

SMILES: CN1CCN(c2ccc(Nc3cc(N4CCC[C@@H](n5ccc6cc(C7CC7)ccc6c5=O)C4)cnc3C(N)=O)cc2)CC1 [Example D-178, 5-[(3R)-3-(6-cyclopropyl-1-oxo-1,2-dihydroisoquinolin-2-yl)piperidin-1-yl]-3-{[4-(4-methylpiperazin-1-yl)phenyl]amino}pyridine-2-carboxamide]
- IC50 [1]: 10 to 100 nM
- IC50 [2]: 1000 to 10000 nM

SMILES: C[C@@H]1[C@H](NC(=O)c2ccc(C3(C(F)(F)F)CC3)cc2)CCCN1c1cnc(C(N)=O)c(Nc2cnn(C)c2)n1 [Example D-221, 3-[(1-Methyl-1H-pyrazol-4-yl)amino]-5-[(2R,3R)-2-methyl-3-{4-[1-(trifluoromethyl)cyclopropyl]benzamido}piperidin-1-yl]pyrazine-2-carboxamide]
- IC50 [1]: ≤ 10 nM
- IC50 [2]: 100 to 1000 nM

SMILES: C[C@@H]1[C@H](NC(=O)c2ccc(C3CC3)cc2)CCCN1c1cnc(C(N)=O)c(Nc2ccc(OC3CCN4CCCC4C3)cc2)n1 (stereo partly drawn) [Example D-211, 5-[(2R,3R)-3-(4-cyclopropylbenzamido)-2-methylpiperidin-1-yl]-3-{[4-(octahydroindolizin-7-yloxy)phenyl]amino}pyrazine-2-carboxamide]
- IC50 [1]: ≤ 10 nM
- IC50 [2]: 10 to 100 nM

SMILES: CC(C)c1ccc(C(=O)N[C@@H]2CCCN(c3cnc(C(N)=O)c(Nc4cnn(C)c4)n3)[C@@H]2C)cc1 [Example D-197, 3-[(1-methyl-1H-pyrazol-4-yl)amino]-5-[(2R,3R)-2-methyl-3-[4-(propan-2-yl)benzamido]piperidin-1-yl]pyrazine-2-carboxamide]
- IC50 [1]: ≤ 10 nM
- IC50 [2]: 100 to 1000 nM

SMILES: Cc1cc(Nc2nc(N3CCC[C@@H](c4ncc(-c5ccc(C6CC6)cc5)[nH]4)[C@H]3C)cnc2C(N)=O)sn1 [Example D-186, 5-[(2R,3R)-3-[5-(4-cyclopropylphenyl)-1H-imidazol-2-yl]-2-methylpiperidin-1-yl]-3-[(3-methyl-1,2-thiazol-5-yl)amino]pyrazine-2-carboxamide]
- IC50 [1]: 10 to 100 nM
- IC50 [2]: 100 to 1000 nM
